In patent US20230416329A1, “A PEPTIDE WITH DISULFIDE BONDS AND INHIBITORY ACTIVITY AGAINST SERINE PROTEASES, DERIVED HYBRID PEPTIDES THEREOF, AND USES THEREOF” (INSTITUTE OF MATERIA MEDICA , CHINESE ACADEMY OF MEDICAL …, priority 2020, published 2023):
Bridge positions count the residues as written; N and C are the ends. Peptide text beside a SMILES is read from it.

Molecular target: α-chymotrypsin (Bos taurus, UniProt P00766)
Experiment: Chymotrypsin inhibitory activity of peptides (AAPFpNA hydrolysis; IC50, Ki, residual activity)
Format: biochemical
Conditions: for IC50: chymotrypsin 30 nM, AAPFpNA 0.5 mM; for Ki: Ki=IC50/(1+S/Km), Km 0.38 mM
Procedure: The inhibition constants of various synthetic active peptide inhibitors (molecular scaffolds) against seine proteases were measured. The substrates N-succinyl-Ala-Ala-Pro-Phe-p-nitroaniline (AAPFpNA), Nα—Benzoyl-L-arginine-4-nitroaniline hydrochloride (BApNA) and N-succinyl-[…] (AAApNA) are used in competitive binding reaction to determine the inhibitory activities against α-chymotrypsin, bovine trypsin, and porcine pancreatic elastase, respectively. Experiments for α-chymotrypsin and bovine trypsin inhibition were measured in 20 mM CaCl2, 50 mM Tris-HCl buffer (pH 7.8), and that for porcine elastase inhibition was measured in 50 mM Tris-HCl buffer (pH 8.0). The concentration of the peptide was measured using optical density (OD) at 280 nm. The Michaelis constant (Km) of the enzyme hydrolysis substrate is calculated from the initial rate of substrate hydrolysis at 405 nm. The absorbance value of the substrate was measured at 405 nm after complete hydrolysis. All data were processed using nonlinear regression.
• (1) Added a total 190 μL of reaction buffer (20 mM CaCl2, 50 mM Tris-HCl (pH 7.8)) into the 96 well plate, followed by preheating at 37° C. for 15 min. Then added 2 μL of different concentrations of substrates (p-Nitroanilide, pNA, 0.5% in DMSO), and mixed by centrifugation at 500 rpm for 1 min. Finally, the plate was incubated at 37° C. for 20 min, and the absorbance value at 405 nm was measured. In the 200 μL of reaction system, the final concentrations of pNA were 0, 0.025, 0.05, 0.075, 0.1, 0.125, 0.15, 0.25, and 0.3 mM, respectively. Make three repetitions for each concentration and plot the OD405 m value with pNA concentration to obtain the standard curve. • (2) Added a total 190 μL of reaction buffer (20 mM CaCl2, 50 mM Tris-HCl (pH 7.8)) and 8 μL of 0.75 μM chymotrypsin into the 96 well plate, followed by preheating at 37° C. for 5 min. Then added 2 μL of different concentrations of substrates (AAPFpNA, dissolved in DMSO), and mixed by centrifugation at 500 rpm for 1 min. Finally, the plate was incubated at 37° C. for 20 min, and the absorbance value at 405 nm was measured. In the 200 μL of reaction system, the final concentrations of AAPFpNA were 0, 0.125, 0.25, 0.285, 0.33, 0.4, and 0.5 mM, respectively. Make three repetitions for each concentration and plot the OD405 nm value with time to obtain the corresponding curve. Divide the slope of the curve by the slope of the standard curve and the enzyme concentration to obtain the initial velocity V0 (mM/(min*mM protein). Plot the initial velocity V0 with the concentration of substrate AAPFpNA using Prism software, and the Michaelis constant Km value of chymotrypsin hydrolyzing AAPFpNA was obtained.
• (1) Added a total 190 μL of reaction buffer (20 mM CaCl2, 50 mM Tris-HCl (pH 7.8)), different concentrations of anti-chymorypsin peptides (CHs) into the pre-cold 96 well plate, followed by preheating at 37° C. for 5 min and centrifugated at 500 rpm for 1 min and allowed to stand for 4 minutes. Then added 8 μL of 750 nM chymotrypsin and incubated at 37° C. for 10 min, and centrifugated at 500 rpm for 1 min and allowed to stand for 9 minutes. Finally, added 2 μL of 50 mM AAPFpNA, and mixed by centrifugation at 500 rpm for 1 min. The plate was incubated at 37° C. for 90 min, and the absorbance value at 405 nm was measured. Three repetitions were made, and only reaction buffer and substrate were added in the blank control as the minimum absorption value (Min OD405 nm); Only reaction buffer, enzyme and substrate were added in the negative control as the maximum absorption value (Max OD405). • (2) In the 200 μL of reaction system, the final concentrations of chymotrypsin and AAPFpNA were 30 nM and 0.5 mM, respectively. • (3) Data statistics
Residual activity of enzyme (%)=(1−(Max OD405 nm−Sample OD405 nm)/(Max OD405 nm−Min OD405 nm))*100 […]

IC50 [µM] | inhibitory activity against chymotrypsin (in words) | Ki [µM] | Structure (SMILES) | also measured
> 50 |  |  | CC[C@H](C)[C@@H]1NC(=O)[C@H](CO)NC(=O)[C@H](Cc2ccc(O)cc2)NC(=O)[C@H]([C@@H](C)O)NC(=O)[C@H](C)NC(=O)[C@H](Cc2ccc(O)cc2)NC(=O)CNC(=O)[C@@H](N)CSSC[C@@H](C(=O)N[C@@H](Cc2ccc(O)cc2)C(=O)NCC(=O)O)NC(=O)[C@H](CCC(N)=O)NC(=O)[C@@H]2CCCN2C(=O)[C@@H]2CCCN2C1=O [CH30] (H-CGYATYSIPPQCYG-OH; disulfide 1-12) | 
6.08 | certain inhibitory activity | 2.63 | CC[C@H](C)[C@@H]1NC(=O)[C@H](CO)NC(=O)[C@H](Cc2ccc(O)cc2)NC(=O)[C@H]([C@@H](C)O)NC(=O)[C@H](C)NC(=O)[C@H](C)NC(=O)CNC(=O)[C@@H](N)CSSC[C@@H](C(=O)N[C@@H](Cc2ccccc2)C(=O)O)NC(=O)[C@H](CCCCN)NC(=O)[C@H](C)NC(=O)[C@@H]2CCCN2C1=O [CH31] (H-CGAATYSIPAKCF-OH; disulfide 1-12; N-terminus and C-terminus assumed) | Residual activity of chymotrypsin (peptide 0.01 μM): 107.4 ± 5.6%; Residual activity of chymotrypsin (peptide 0.1 μM): 104.3 ± 1.7%; Residual activity of chymotrypsin (peptide 1 μM): 104.8 ± 2.6%; Residual activity of chymotrypsin (peptide 8 μM): 42.5 ± 5.9%; Residual activity of chymotrypsin (peptide 10 μM): 29.5 ± 5.1%; Residual activity of chymotrypsin (peptide 25 μM): 12.7 ± 4.0%; Residual activity of chymotrypsin (peptide 100 μM): 2.6 ± 0.3%; Residual activity of chymotrypsin (peptide 300 μM): 1.0 ± 0.1%; Residual activity of chymotrypsin (peptide 1000 μM): 0.4 ± 0.0%
6.38 | certain inhibitory activity | 2.76 | CC[C@H](C)[C@@H]1NC(=O)[C@H](CO)NC(=O)[C@H](Cc2ccc(O)cc2)NC(=O)[C@H]([C@@H](C)O)NC(=O)[C@H](C)NC(=O)[C@H](C)NC(=O)CNC(=O)CNC(=O)[C@@H](N)CSSC[C@@H](C(=O)N[C@@H](Cc2ccccc2)C(=O)O)NC(=O)[C@H](CCCCN)NC(=O)[C@H](C)NC(=O)[C@@H]2CCCN2C1=O [CH32] (H-CGGAATYSIPAKCF-OH; disulfide 1-13; N-terminus and C-terminus assumed) | Residual activity of chymotrypsin (peptide 0.01 μM): 99.5 ± 0.1%; Residual activity of chymotrypsin (peptide 0.1 μM): 100.2 ± 1.9%; Residual activity of chymotrypsin (peptide 1 μM): 99.0 ± 2.0%; Residual activity of chymotrypsin (peptide 4 μM): 90.1 ± 6.1%; Residual activity of chymotrypsin (peptide 6 μM): 49.2 ± 2.7%; Residual activity of chymotrypsin (peptide 8 μM): 40.8 ± 6.0%; Residual activity of chymotrypsin (peptide 25 μM): 14.4 ± 1.1%; Residual activity of chymotrypsin (peptide 100 μM): 2.2 ± 0.2%; Residual activity of chymotrypsin (peptide 300 μM): 0.7 ± 0.1%
 | good inhibitory activity |  | CC[C@H](C)[C@@H]1NC(=O)[C@H](CO)NC(=O)[C@H](Cc2ccc(O)cc2)NC(=O)[C@H]([C@@H](C)O)NC(=O)[C@@H](NC(=O)[C@@H](N)Cc2ccccc2)CSSC[C@@H](C(=O)N[C@@H](Cc2ccc(O)cc2)C(=O)O)NC(=O)[C@H](CCC(N)=O)NC(=O)[C@@H]2CCCN2C(=O)[C@@H]2CCCN2C1=O [CH33] (H-FCTYSIPPQCY-OH; disulfide 2-10; C-terminus assumed) | 
 | good inhibitory activity |  | CC[C@H](C)[C@@H]1NC(=O)[C@H](CO)NC(=O)[C@H](Cc2ccc(O)cc2)NC(=O)[C@H]([C@@H](C)O)NC(=O)[C@@H](NC(=O)[C@@H](N)Cc2ccccc2)CSSC[C@@H](C(=O)N[C@@H](Cc2ccc(O)cc2)C(=O)N[C@@H](C)C(=O)O)NC(=O)[C@H](CCC(N)=O)NC(=O)[C@@H]2CCCN2C(=O)[C@@H]2CCCN2C1=O [CH34] (H-FCTYSIPPQCYA-OH; disulfide 2-10; N-terminus and C-terminus assumed) | 
 | good inhibitory activity |  | CC[C@H](C)[C@@H]1NC(=O)[C@H](CO)NC(=O)[C@H](Cc2ccc(O)cc2)NC(=O)[C@H]([C@@H](C)O)NC(=O)[C@@H](NC(=O)[C@@H](N)Cc2ccccc2)CSSC[C@@H](C(=O)N[C@@H](CCCNC(=N)N)C(=O)O)NC(=O)[C@H](CCC(N)=O)NC(=O)[C@@H]2CCCN2C(=O)[C@@H]2CCCN2C1=O [CH35] (H-FCTYSIPPQCR-OH; disulfide 2-10; C-terminus assumed) | Residual activity of chymotrypsin (peptide 1000 μM): 0.9 ± 0.1%
3.23 |  | 1.39 | CC[C@H](C)[C@@H]1NC(=O)[C@H](CO)NC(=O)[C@H](Cc2ccc(O)cc2)NC(=O)[C@H]([C@@H](C)O)NC(=O)[C@@H](NC(=O)[C@@H](N)Cc2ccccc2)CSSC[C@@H](C(=O)N[C@@H](Cc2ccc(O)cc2)C(=O)O)NC(=O)[C@H](CCCCN)NC(=O)[C@H](C)NC(=O)[C@@H]2CCCN2C1=O [CH36] (H-FCTYSIPAKCY-OH; disulfide 2-10; N-terminus and C-terminus assumed) | 
1.81 |  | 0.78 | CC[C@H](C)[C@@H]1NC(=O)[C@H](CO)NC(=O)[C@H](Cc2ccc(O)cc2)NC(=O)[C@H]([C@@H](C)O)NC(=O)[C@@H](NC(=O)[C@@H](N)Cc2ccccc2)CSSC[C@@H](C(=O)N[C@@H](Cc2ccc(O)cc2)C(=O)O)NC(=O)[C@H](CCC(N)=O)NC(=O)[C@H](C)NC(=O)[C@@H]2CCCN2C1=O [CH37] (H-FCTYSIPAQCY-OH; disulfide 2-10; N-terminus and C-terminus assumed) | 
4.98 |  | 2.15 | CC[C@H](C)[C@H](N)C(=O)N[C@H]1CSSC[C@@H](C(=O)N[C@H](C(=O)O)[C@@H](C)CC)NC(=O)[C@H](CCC(N)=O)NC(=O)[C@H](C)NC(=O)[C@@H]2CCCN2C(=O)[C@H]([C@@H](C)CC)NC(=O)[C@H](CO)NC(=O)[C@H](Cc2ccccc2)NC(=O)[C@H]([C@@H](C)O)NC1=O [CH38] (H-ICTFSIPAQCI-OH; disulfide 2-10; N-terminus and C-terminus assumed) | 
2.46 |  | 1.06 | CC[C@H](C)[C@H](N)C(=O)N[C@H]1CSSC[C@@H](C(=O)N[C@@H](Cc2ccccc2)C(=O)O)NC(=O)[C@H](CCC(N)=O)NC(=O)[C@H](C)NC(=O)[C@@H]2CCCN2C(=O)[C@H]([C@@H](C)CC)NC(=O)[C@H](CO)NC(=O)[C@H](Cc2ccccc2)NC(=O)[C@H]([C@@H](C)O)NC1=O [CH40] (H-ICTFSIPAQCF-OH; disulfide 2-10; N-terminus and C-terminus assumed) | 
2.6 |  | 1.12 | CSCC[C@@H]1NC(=O)[C@H](CO)NC(=O)[C@H](Cc2ccc(O)cc2)NC(=O)[C@H]([C@@H](C)O)NC(=O)[C@@H](NC(=O)[C@@H](N)Cc2ccccc2)CSSC[C@@H](C(=O)N[C@H](C(=O)O)C(C)C)NC(=O)[C@H](Cc2c[nH]cn2)NC(=O)[C@@H]2CCCN2C(=O)[C@@H]2CCCN2C1=O [CH41] (H-FCTYSMPPHCV-OH; disulfide 2-10; N-terminus and C-terminus assumed) | 
> 50 |  |  | CC(C)C[C@H](NC(=O)[C@@H]1CSSC[C@H](NC(=O)[C@@H](N)CCCNC(=N)N)C(=O)N[C@@H](CC(=O)O)C(=O)N[C@@H](Cc2ccccc2)C(=O)N[C@@H](CO)C(=O)N[C@@H](Cc2c[nH]c3ccccc23)C(=O)N2CCC[C@H]2C(=O)N2CCC[C@H]2C(=O)N[C@@H](CCCNC(=N)N)C(=O)N1)C(=O)O [CH42] (H-RCDFSWPPRCL-OH; disulfide 2-10; N-terminus and C-terminus assumed) | 
